Calls of active or inactive are those of the source. The rule behind the calls is not given here. Bounds are passed on as bounds.

The species named for series [1] is Oryctolagus cuniculus. As to the kind of experiment: Reduction in intraocular pressure in Chinchilla rabbit assessed as maximal change in intraocular pressure at 0.1% after application of one drop (0.06 ml) of solution containing active compound/vehicle every hour (during 6 hours and after 24 hours) by automatic tonometry. Format: functional. Also on record: scale not given: the % may be the effect or the level left.

Series [2] is filed under the species Oryctolagus cuniculus. As to the kind of experiment: Reduction in intraocular pressure in Chinchilla rabbit assessed as maximum effective time required for reduction of intraaocular pressure at 0.1% after application of one drop (0.06 ml) of solution containing active compound/vehicle every hour (during 6 hours and after 24 hours) by automatic tonometry. The series is classed as functional.

Series [3] can be described thus: Toxicity in rat. The conditions noted are these: in vivo.
Series [4] is filed under the species Oryctolagus cuniculus. As to the kind of experiment: Reduction in intraocular pressure in Chinchilla rabbit assessed as maximum effective time required for reduction of intraaocular pressure at 0.1% after application of one drop (0.06 ml) of solution containing active compound/vehicle every hour (during 6 hours and after 24 hours) and measured after 24 hrs post dose by automatic tonometry. The series is classed as functional.

The target of series [5] is T1, Ribosyldihydronicotinamide dehydrogenase [quinone] (Homo sapiens, UniProt P16083).
T1 sequence (P16083 whole entry): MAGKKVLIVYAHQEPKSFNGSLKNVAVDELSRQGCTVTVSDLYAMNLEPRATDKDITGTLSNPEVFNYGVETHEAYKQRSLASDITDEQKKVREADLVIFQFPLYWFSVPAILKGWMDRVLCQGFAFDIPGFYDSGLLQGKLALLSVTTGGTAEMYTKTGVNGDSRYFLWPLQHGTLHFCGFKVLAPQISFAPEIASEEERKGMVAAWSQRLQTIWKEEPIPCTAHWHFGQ
As to the kind of experiment: Inhibition of QR2 (unknown origin) using MTT and NMeH as substrates.

Series [6] deals with T2, Ribosyldihydronicotinamide dehydrogenase [quinone] (Homo sapiens) (UniProt P16083).
T2 sequence (whole entry): T1 sequence (P16083 whole entry)
As to the kind of experiment: Inhibition of QR2 (unknown origin) using MTT and NMeH as substrates relative to control.

The nature of series [7]: Inhibition of MT-3 (unknown origin). More on the design: species or system Homo sapiens.
Series [8] is described as follows: Binding affinity to MT-3 (unknown origin). Also on record: species or system Homo sapiens.
Series [9] deals with Oryctolagus cuniculus. As to the kind of experiment: Reduction in intraocular pressure in New Zealand white rabbit at 100 mg/10 ml dosed via topical route measured after 0.5 to 6 hrs post dose by tonometry. Format: functional. Also on record: scale not given: the % may be the effect or the level left.
The species entered for series [10] is Oryctolagus cuniculus. As to the kind of experiment: Reduction in intraocular pressure in Chinchilla rabbit assessed as maximal change in intraocular pressure at 0.1% after application of one drop (0.06 ml) of solution containing active compound/vehicle every hour (during 6 hours and after 24 hours) by applanation tonometry. Format: functional. Also on record: scale not given: the % may be the effect or the level left.

For series [11], the species on record is Oryctolagus cuniculus. As to the kind of experiment: Reduction in intraocular pressure in Chinchilla rabbit assessed as maximum effective time required for reduction of intraaocular pressure at 0.1% after application of one drop (0.06 ml) of solution containing active compound/vehicle every hour (during 6 hours and after 24 hours) by applanation tonometry. Format: functional.

Series [12] is filed under the species Oryctolagus cuniculus. As to the kind of experiment: Reduction in intraocular pressure in Chinchilla rabbit assessed as maximal change in intraocular pressure at 1% after application of one drop (0.06 ml) of solution containing active compound/vehicle every hour (during 6 hours and after 24 hours) by applanation tonometry. Format: functional.
Series [13] is filed under the species Oryctolagus cuniculus. As to the kind of experiment: Reduction in intraocular pressure in Chinchilla rabbit assessed as maximum effective time required for reduction of intraaocular pressure at 0.1% after application of one drop (0.06 ml) of solution containing active compound/vehicle every hour (during 6 hours and after 24 hours) and measured after 6 hrs post dose by automatic tonometry. The series is classed as functional.

Series [14] in a line: Solubility in water. Format: physicochemical. The conditions noted are these: buffer.
The species named for series [15] is Oryctolagus cuniculus. As to the kind of experiment: Reduction in intraocular pressure in Chinchilla rabbit assessed as maximal change in intraocular pressure at 0.5% after application of one drop (0.06 ml) of solution containing active compound/vehicle every hour (during 6 hours and after 24 hours) by applanation tonometry. The series is classed as functional.

With `CCC(=O)Nc1cc(NC(=O)CC)c2c(c1)C(O)(CC#N)C(=O)N2` (stereo not drawn), the Activity in [1] is 29%. The Time in [2] worked out at 4 h. This compound showed an LD50 in series [3] above 2400 mg/kg. Further, the result in series [4] was inactive.
Compound `CC(=O)NCCC1C(=O)Nc2ccc(Br)cc21` (stereo not drawn) had an IC50 in [5] of 19 µM. This compound also yielded an Imax in series [6] of 29.9%. The result in series [1] and in [4] was inactive. In series [2], the Time entry is “inactive”. The compound also displayed an LD50 in series [3] above 2400 mg/kg.
Regarding `CC(=O)Nc1ccc2c(c1)C(O)(CC(=O)O)C(=O)N2` (stereo not drawn), the Activity in [1] turned out to be 18%. Also, the Time in series [2] was found to be 2 h. Moreover, in series [3], the median lethal dose (LD50) is above 2400 mg/kg. The outcome in series [4] was inactive.
On the same counts, the results for `CC(=O)NCCC1C(=O)Nc2ccc(NC(C)=O)cc21` (stereo not drawn) are “inactive”, “inactive”, above 2400 mg/kg and “inactive”.
In series [5], `COc1ccc2c(c1)C1(CC1CNC(C)=O)C(=O)N2C` (stereo not drawn) showed an IC50 of 5.1 µM. In [6], this compound gave an Imax of 93.9%. The Activity in [1] came out at 10%. For the same compound, in series [2], the Time stood at 2 h. Moreover, in [3], the LD50 was above 2400 mg/kg. Also, in series [4], the result was inactive.
In the case of `CC(=O)Nc1cccc2c1NC(=O)C2CC#N` (stereo not drawn), the outcome in series [1] and in [4] was inactive. The Time entry in [2] was “inactive”. Further, in series [3], the LD50 is above 2400 mg/kg.
`CC(=O)NCCc1cn(C)c2c(C)c(C)ccc12` came in with an IC50 in series [5] of 4.5 µM. The Imax in [6] stood at 97.4%. Besides, the result in series [1] and in series [4] was inactive. Moreover, the Time result in series [2] is “inactive”. The compound further returned an LD50 in series [3] above 2400 mg/kg.
For `COc1ccc2c(c1)C1(C(=O)N2)C2CCC(C2)C1CNC(C)=O` (stereo not drawn), in [5], the IC50 worked out at 63 µM. The Imax in [6] is 59.6%. Moreover, the result in series [1] and in [4] was inactive. Besides, the Time entry in [2] was “inactive”. Further, in series [3], the LD50 was above 2400 mg/kg.
As for `CC(=O)Nc1ccc2c(c1)C(CC#N)C(=O)N2` (stereo not drawn), the Activity in [1] worked out at 22%. Further, the Time in series [2] worked out at 4 h. Moreover, in [3], the LD50 is above 2400 mg/kg. The outcome in series [4] was inactive.
Consider `COC(=O)Nc1ccc2[nH]cc(CCNC(C)=O)c2c1`, for which the IC50 in [7] stood at 0.058 µM. In addition, in series [8], the Ki stood at 0.065 µM. In addition, the Activity in series [9] was determined as 45%.
For `COc1ccc2[nH]cc(CCNC(C)=O)c2c1` [MELATONIN], the Activity was 12% in series [10] and 26 - 31% in series [1]. Also, the Time amounted to 4 h in series [11] and 3 h in series [2]. Besides, the result in series [12] and in series [4] was inactive.
For the compound `COc1ccc2c(c1)c(CCNC(C)=O)cn2C`, in series [5], the IC50 came out at 5.7 µM. In series [6], this compound showed an Imax of 102%. Also, the Activity in [1] is 8%. Also, the Time in series [2] came out at 2 h. In [3], this compound returned an LD50 above 2400 mg/kg. Further, the result in series [4] was inactive.
In [5], `COc1ccc2[nH]c(Cl)c(CCNC(C)=O)c2c1` came in with an IC50 of 13 µM. For the same compound, in series [6], the Imax was 91%. Also, the outcome in series [1] and in [4] was inactive. Moreover, the Time result in series [2] was “inactive”. Further, the LD50 in series [3] was above 2400 mg/kg.
On to `CCOC(=O)C(C(=O)O)C1C(=O)Nc2ccc(OC)cc21` (stereo not drawn), for which the Activity in [1] was 18%. Also, the Time in [2] was determined as 4 h. This compound gave an LD50 in series [3] above 2400 mg/kg. Moreover, the outcome in [4] was inactive.
On the same counts, the results for `CC(=O)Nc1ccc2c(c1)C(CC#N)C(=O)N2C` (stereo not drawn) are “inactive”, “inactive”, above 2400 mg/kg and “inactive”.
On the same counts, the results for `CC(=O)Nc1ccc2c(c1)C(O)(CC#N)C(=O)N2` (stereo not drawn) are “inactive”, “inactive”, above 2400 mg/kg and “inactive”.
Consider `CC(C)(C)NC[C@H](O)COc1nsnc1N1CCOCC1` [TIMOLOL], for which the Activity worked out at 11% in [10] and 32% in series [1]. Also, the Time in [11] amounted to 3 h; in [2], 4 h. Moreover, the result in [4] was inactive.
As to `COc1cc(NC(C)=O)c2c(c1)C(CC#N)(OC(C)=O)C(=O)N2` (stereo not drawn), the Activity in series [1] came out at 18%. In [2], the Time came out at 2 h. In addition, the LD50 in [3] was above 2400 mg/kg. The result in series [4] was inactive.
On the same counts, the results for `CCC(=O)Nc1cc(NC(=O)CC)c2c(c1)C(CC#N)(OC(=O)CC)C(=O)N2` (stereo not drawn) are 15%, 2 h, above 2400 mg/kg and “inactive”.
For the compound `CC(=O)Nc1ccc2c(c1)C(CC(=O)O)C(=O)N2` (stereo not drawn), the Activity in series [1] is recorded as 41%. For the same compound, in series [2], the Time was 4 h. In addition, in series [3], the LD50 was above 2400 mg/kg. In addition, the outcome in [13] was Active. For the same compound, the solubility result in [14] is “Soluble”.
On to `CC(=O)Nc1cc(NC(C)=O)c2c(c1)C(CC#N)(OC(C)=O)C(=O)N2` (stereo not drawn), for which, in series [1], the Activity was 21%. Besides, the Time in [2] worked out at 2 h. In series [3], this compound yielded an LD50 above 2400 mg/kg. For the same compound, in series [15], the result was Active. The result in [12] and in series [4] was inactive.
Take `N#CCC1C(=O)Nc2ccc(Br)cc21` (stereo not drawn): the outcome in series [1] and in series [4] was inactive. In addition, the Time entry in series [2] is “inactive”. The compound further yielded an LD50 in series [3] above 2400 mg/kg.
Turning to `COc1ccc2c(c1)C(CC#N)C(=O)N2` (stereo not drawn), the outcome in series [1] and in series [4] was inactive. The Time result in series [2] is “inactive”. This compound also yielded an LD50 in series [3] above 2400 mg/kg.
On to `CC(=O)NCCC1(O)C(=O)Nc2ccc(NC(C)=O)cc21` (stereo not drawn), for which the result in series [1] and in [4] was inactive. In addition, the Time entry in series [2] was “inactive”. This compound also displayed an LD50 in series [3] above 2400 mg/kg.
